Publication PMC10886162, “Synthesis of Novel Artemisinin, Ciprofloxacin, and Norfloxacin Hybrids with Potent Antiplasmodial Activity” (Antibiotics, 2024)

Assays:
[1] = test system: CQ-resistant P. falciparum strain FcB1; details: cited from earlier work
[2] = test system: CQ-resistant Dd2 strain of P. falciparum; experiment: In vitro growth inhibition of P. falciparum Dd2 ([3H]-hypoxanthine incorporation); assay type: cell-based, Plasmodium falciparum; details: for IC50: Plasmodium falciparum, CQ-resistant Dd2, mean +/− SD of at least three independent experiments; for Selectivity Index (IC50 AB943/IC50 Dd2): ratio of cytotoxicity IC50 to antiplasmodial IC50 (Dd2)
Procedure: (§1) The chloroquine-resistant FcB1/Colombia and Dd2/Indochina strains of Plasmodium falciparum were obtained from the Protist Collection of the National Museum of Natural History, Paris, France (n° MNHN-CEU-2016-224-PfFCB1 and MNHN-CEU-2016-222-PfDD2). The parasites were maintained in vitro on human erythrocytes in RPMI 1640 medium supplemented by 8% (v/v) heat-inactivated human serum, at 37 °C, under an atmosphere of 5% CO2. The human red blood cells and serum were provided by the Établissement Français du Sang under the C-CPSL-UNT approval no. 13/EFS/126. The in vitro drug susceptibility assays were measured by [^3H]-hypoxanthine incorporation, as previously described. The drug stock solutions were prepared in DMSO. Briefly, the assays were performed in 96-well plates. The compounds were diluted in the culture medium (100 μL per well). The parasite cultures (100 μL, 2% parasitaemia, and 1% final hematocrit) were then added to each well and incubated for 24 h at 37 °C prior to the addition of 0.5 μCi of [^3H]- hypoxanthine (GE Healthcare, Paris, France, 1 to 5 Ci·mmol/mL) per well. After a further incubation of 24 h, the plates were frozen and thawed. The cell lysates were then collected onto fiberglass filters and counted in a liquid scintillation spectrometer. The growth inhibition for each drug concentration was determined through a comparison of the radioactivity incorporated in the treated culture with that in the control culture maintained on the same plate. The drugs were first evaluated for a range of fixed concentrations of 50, 5, 0.5, 0.05, and 0.005 μg/mL. […] The IC50 value was obtained from the drug concentration–response curve, and the results were expressed in μM or nM as the mean values ± standard deviations determined from several independent experiments. Artesunate (46) was used as an antimalarial drug control.

[3] = test system: CQ-resistant P. falciparum FcB1 strain; experiment: In vitro growth inhibition of P. falciparum FcB1 ([3H]-hypoxanthine incorporation); assay type: cell-based, Plasmodium falciparum; details: for IC50: Plasmodium falciparum; for Selectivity Index (IC50 AB943/IC50 FcB1): ratio of cytotoxicity IC50 to antiplasmodial IC50 (FcB1)
Procedure: as §1

[4] = test system: P. falciparum parasite strains (3D7, Dd2, and K1); parameters: method as in PMID 31290221; details: range over 3D7, Dd2 and K1 strains; cited from earlier work
[5] = test system: human primary fibroblasts AB943; experiment: Cytotoxicity upon human primary fibroblasts AB943 (resazurin); assay type: cell-based; details: Fibroblast, 72 h, mean +/− SD of at least three independent experiments
Procedure: A cellular cytotoxicity evaluation was performed upon human primary fibroblasts AB943, as previously described. The assays were realized in 96-well plates in DMEM + Glutamax without phenol red medium containing 25 mM HEPES, a pH of 7.3, and 10% of fetal calf serum under a 5% CO2 atmosphere, at 37 °C. After trypsin treatment, the AB943 cells were seeded at 2000 cells per well in 100 μL. After 24 h of incubation, drugs diluted in the culture medium were added (100 μL per well). The drug stock solutions were prepared in dimethyl sulfoxide (DMSO). The final DMSO concentration in the cultures remained below 1%. Control cultures were constituted of cultures treated with DMSO instead of the drug. The cytotoxicity assay was based on the conversion of a redo-sensitive dye (resazurin) to a fluorescent product via viable cells. After 72 h of incubation, the resazurin solution was added in each well at a final concentration of 45 μM. The fluorescence was measured at 530 nm excitation and 590 nm emission wavelengths after 4 h of incubation. The percentage of the inhibition of cell growth was calculated by comparing the fluorescence of cells maintained in the presence of the drug to that in the absence of the drug. The concentration causing 50% growth inhibition (IC50) was obtained from the drug concentration–response curve, and the results were expressed as the mean values ± standard deviations determined from several experiments.

3D7 strain = test system: 3D7 strain; parameters: method as in PMID 30023664; details: cited from earlier work
3D7 P. falciparum strain = test system: 3D7 P. falciparum strain; parameters: method as in PMID 32676153; details: cited from earlier work
W2 P. falciparum strain = test system: W2 P. falciparum strain; parameters: method as in PMID 32676153; details: cited from earlier work
[6] = test system: mammalian and bacterial systems; parameters: method as in PMID 32676153; details: cited from earlier work
[7] = FCB1, CQ-resistant FcB1, mean +/− standard deviation of independent experiments (at least four in Tables 1-2, at least three in Tables 3-4)

| melting point [°C] | Compound | IC50 [2] [nM] | Selectivity Index (IC50 AB943/IC50 Dd2) [2] | IC50 [3, 7] [nM] | Selectivity Index (IC50 AB943/IC50 FcB1) [3] | IC50 [5] [nM] | EC50 (3D7 strain) [nM] | further results |
| --- | --- | --- | --- | --- | --- | --- | --- | --- |
|  | C[C@@H]1CC[C@H]2[C@@H](C)C(=O)O[C@@H]3O[C@@]4(C)CC[C@@H]1[C@]32OO4 [ART, artemisinin] |  |  |  |  |  |  | IC50 [1]: 55 ± 13.6 nM |
|  | C[C@H]1[C@H](OC(=O)CCC(=O)O)O[C@@H]2O[C@@]3(C)CC[C@H]4[C@H](C)CC[C@@H]1[C@@]24OO3 [AS (46), artesunate, reference compound] | 41.9 | >3104 | 18.5 | >7042 | > 130000 |  | IC50 ([3]; FCB1, Table 5, single compound (hybrid or AS alone)): 4.5 nM; EC50 [4]: 5.2 to 14.4 nM |
|  | CCN(CC)CCCC(C)Nc1ccnc2cc(Cl)ccc12 (stereo not drawn) [CQ, chloroquine] |  |  |  |  |  | 9.8 ± 2.8 |  |
| 115 to 116 | C[C@@H]1CCC2[C@@H](C)[C@@H](CCC(=O)N3CCN(c4cc5c(cc4F)c(=O)c(C(=O)N4CCN(c6ccnc7cc(Cl)ccc67)CC4)cn5C4CC4)CC3)O[C@@H]3O[C@@]4(C)CCC1[C@@]23OO4 (stereo partly drawn) [Compound 26, 3-(4-(7-chloroquinolin-4-yl)piperazine-1-carbonyl)-1-cyclopropyl-6-fluoro-7-(4-(3-((3R,6R,9R,10R,12R,12aR)-3,6,9-trimethyldecahydro-12H-3,12-epoxy[1,2]dioxepino[4,3-i]isochromen-10-yl)propanoyl)piperazin-1-yl)quinolin-4(1H)-one] | 41.5 | 880 | 13.7 | 2668 | 36500 |  |  |
| 157 to 158.2 | C[C@@H]1CCC2[C@@H](C)[C@H](OC(=O)CCC(=O)N3CCN(c4cc5c(cc4F)c(=O)c(C(=O)N4CCN(c6ccnc7cc(Cl)ccc67)CC4)cn5C4CC4)CC3)O[C@@H]3O[C@@]4(C)CCC1[C@@]23OO4 (stereo partly drawn) [Compound 28, (3R,6R,9R,10S,12R,12aR)-3,6,9-trimethyldecahydro-12H-3,12-epoxy[1,2]dioxepino[4,3-i]isochromen-10-yl 4-(4-(3-(4-(7-chloroquinolin-4-yl)piperazine-1-carbonyl)-1-cyclopropyl-6-fluoro-4-oxo-1,4-dihydroquinolin-7-yl)piperazin-1-yl)-4-oxobutanoate] | 12.4 | 1582 | 4.9 | 4046 | 19600 |  |  |
| 168.7 to 169.6 | CCn1cc(C(=O)N2CCN(c3ccnc4cc(Cl)ccc34)CC2)c(=O)c2cc(F)c(N3CCN(C(=O)CCC(=O)O[C@@H]4O[C@@H]5O[C@@]6(C)CCC7[C@H](C)CCC([C@H]4C)[C@]75OO6)CC3)cc21 (stereo partly drawn) [Compound 29, (3R,6R,9R,10S,12R,12aR)-3,6,9-trimethyldecahydro-12H-3,12-epoxy[1,2]dioxepino[4,3-i]isochromen-10-yl 4-(4-(3-(4-(7-chloroquinolin-4-yl)piperazine-1-carbonyl)-1-ethyl-6-fluoro-4-oxo-1,4-dihydroquinolin-7-yl)piperazin-1-yl)-4-oxobutanoate] | 18.2 | 1658 | 5 | 6027 | 30300 |  |  |
|  | C[C@H]1[C@@H](O)O[C@@H]2O[C@@]3(C)CC[C@H]4[C@H](C)CC[C@@H]1[C@@]24OO3 [DHA, dihydroartemisinin] |  |  |  |  |  | 2.4 ± 0.4 |  |
|  | CC1CCC2C(C)C(OC(=O)CCC(=O)OCCNc3ccc4ncnc(Nc5ccc(Cl)c(Cl)c5)c4c3)OC3OC4(C)CCC1C32OO4 (stereo not drawn) [hybrid 3] |  |  |  |  |  | 1.4 ± 0.4 |  |
|  | CC1CCC2C(C)C(OC(=O)CCC(=O)OCCNc3ccnc4cc(Cl)ccc34)OC3OC4(C)CCC1C32OO4 (stereo not drawn) [hybrid 4] |  |  |  |  |  |  | EC50 [4]: 1.7 to 4.5 nM |
|  | CCOC(=O)c1cn(C2CC2)c2cc(N3CCN(c4ccnc5cc(Cl)ccc45)CC3)c(F)cc2c1=O [hybrid 10] |  |  |  |  |  |  | IC50 (3D7 P. falciparum strain): 63.2 ± 1.2 nM; IC50 (W2 P. falciparum strain): 25.5 ± 4.45 nM; toxicity to mammalian and bacterial systems [6]: nontoxic |
